Assay results reported in patent US20250144067A1, “PERSONALIZED STARVATION THERAPY FOR CANCER” (Faeth Therapeutics, Inc., priority 2021, published 2025).
Where a name gives a salt, the structure may show the parent alone. Read-outs that look alike come from different tables or passages of the source.

How the values were obtained:
[1] = test system: NCI-H292 lung cancer cells; experiment: FDA drug screening, complete media vs cholesterol-free media without statin (TABLE 1); type: cell-based, human
[2] = test system: NCI-H292 lung cancer cells; experiment: FDA drug screening, complete media vs cholesterol-free media with simvastatin (TABLE 2); type: cell-based, human
[3] = NCI-H292 cells, cholesterol-free media without statin
[4] = complete vs cholesterol-free media, greater than 0 enhanced anti-cancer activity, about 0 neutral, below 0 antagonists
[5] = NCI-H292 cells, cholesterol-free media with simvastatin 0.04 μM, cell growth value in FDA drug screen
[6] = NCI-H292 cells, complete media, cell growth value in FDA drug screen
[7] = complete media minus cholesterol-free media + simvastatin, >0 enhanced anti-cancer activity, about 0 neutral, <0 antagonist
[8] = Complete minus Cholesterol-free, >0 enhanced anti-cancer activity, about 0 neutral, <0 antagonist
[9] = NCI-H292 cells, cholesterol-free media without statin, FDA drug library screen
[10] = NCI-H292 cells, complete media, FDA drug library screen
[11] = NCI-H292 cells, drug in cholesterol-free media with simvastatin 0.04 μM
[12] = NCI-H292 cells, drug in complete media
[13] = complete media vs cholesterol-free media + simvastatin (0.04 μM), >0 enhanced anti-cancer activity, about 0 neutral, <0 antagonist
[14] = complete vs cholesterol-free media, >0 enhanced anti-cancer activity, about 0 neutral, <0 antagonist
[15] = NCI-H292 cells, FDA drug library screen, cholesterol-free media with simvastatin 0.04 μM
[16] = NCI-H292 cells, FDA drug library screen, complete media
[17] = Complete minus Cholesterol-free, greater than 0 enhanced anti-cancer activity, about 0 neutral, below 0 antagonist
[18] = NCI-H292 cells, FDA drug library screen, cholesterol-free media without statin
[19] = NCI-H292 cells, FDA library drug in cholesterol-free media with simvastatin 0.04 μM
[20] = NCI-H292 cells, FDA library drug in complete media

`CCC[C@@H]1C[C@@H](C(=O)N[C@@H]([C@H]2O[C@H](SC)[C@H](O)[C@@H](O)[C@H]2O)[C@@H](C)O)N(C)C1` [Lincomycin (hydrochloride monohydrate)] gave a Cholesterol-free [1, 3] of 1.114, a Complete ([1]; NCI-H292 cells, complete media) of 0.7781 and a Difference [1, 4] of −0.34. For the same compound, the “Cholesterol-free media + simvastatin (0.04 μM)” value [2, 5] was 0.819, the “Complete Media” value [2, 6] was 0.8378 and the Difference [2, 7] was 0.02.
Work on `CC(=O)NC[C@H]1CN(c2ccc(N3CCOCC3)c(F)c2)C(=O)O1` [Linezolid] yielded a Difference [1, 8] of 0.04, a Cholesterol-free [1, 9] of 0.9483 and a Complete [1, 10] of 0.9881. The “Cholesterol-free media + simvastatin (0.04 μM)” value [2, 11] was 1.38, the “Complete Media” value [2, 12] was 1.187 and the Difference [2, 13] was −0.19.
`CCCCC/C=C\C/C=C\CCCCCCCC(=O)O` [Linoleic acid] was tested, and the Cholesterol-free [1, 9] was 1.134, the Complete [1, 10] was 1.557 and the Difference [1, 14] was 0.42. The “Cholesterol-free media + simvastatin (0.04 μM)” value [2, 15] was 1.399, the “Complete Media” value [2, 16] was 1.847 and the Difference [2, 7] was 0.45.
Compound `N[C@@H](Cc1cc(I)c(Oc2ccc(O)c(I)c2)c(I)c1)C(=O)O` [Liothyronine (sodium)] has a Cholesterol-free [1, 3] of 1.224, a Complete ([1]; NCI-H292 cells, complete media) of 0.9078 and a Difference [1, 4] of −0.32. The “Cholesterol-free media + simvastatin (0.04 μM)” value [2, 11] was 1.302, the “Complete Media” value [2, 12] was 1.113 and the Difference [2, 13] was −0.19.
`N[C@@H](Cc1cc(I)c(Oc2ccc(O)c(I)c2)c(I)c1)C(=O)O` [Liothyronine] gave a Difference [1, 8] of −0.26, a Cholesterol-free [1, 3] of 1.173 and a Complete ([1]; NCI-H292 cells, complete media) of 0.9078. The “Cholesterol-free media + simvastatin (0.04 μM)” value [2, 15] was 1.186, the “Complete Media” value [2, 16] was 1.048 and the Difference [2, 13] was −0.14.
`O=C(O)CCCCC1CCSS1` (stereo not drawn) [Lipoic acid] showed a Difference [1, 17] of −0.11, a Cholesterol-free [1, 18] of 0.8613 and a Complete [1, 16] of 0.7528. For the same compound, the “Cholesterol-free media + simvastatin (0.04 μM)” value [2, 15] was 0.7443, the “Complete Media” value [2, 16] was 1.012 and the Difference [2, 7] was 0.27.
Compound `COc1cccc(N(C)C(=S)Oc2ccc3c(c2)CCCC3)n1` [Liranaftate] has a Cholesterol-free [1] of 1.279, a Complete [1] of 0.8388 and a Difference [1] of −0.44. For the same compound, the “Cholesterol-free media + simvastatin (0.04 μM)” value [2] was 0.9604, the “Complete Media” value [2] was 0.9217 and the Difference [2] was −0.04.
Work on `NCCCC[C@H](N[C@@H](CCc1ccccc1)C(=O)O)C(=O)N1CCC[C@H]1C(=O)O` [Lisinopril (dihydrate)] yielded a Difference [1, 17] of −0.08, a Cholesterol-free [1, 18] of 1.734 and a Complete [1, 16] of 1.657. For the same compound, the “Cholesterol-free media + simvastatin (0.04 μM)” value ([2]; NCI-H292 cells, cholesterol-free media with simvastatin 0.04 μM, FDA drug library screen (TABLE 2)) was 0.94, the “Complete Media” value ([2]; NCI-H292 cells, complete media, FDA drug library screen (TABLE 2)) was 0.9409 and the Difference ([2]; complete media minus cholesterol-free media + simvastatin (0.04 μM), >0 enhanced anti-cancer activity, about 0 neutral, <0 antagonist) was 0.00.
`CN1[C@@H](CC(=O)c2ccccc2)CCC[C@H]1C[C@H](O)c1ccccc1` [Lobeline (hydrochloride)] was tested, and the Cholesterol-free [1, 9] was 0.6538, the Complete [1, 10] was 1.202 and the Difference [1, 14] was 0.55. For the same compound, the “Cholesterol-free media + simvastatin (0.04 μM)” value [2, 19] was 1.408, the “Complete Media” value [2, 20] was 1.116 and the Difference [2, 13] was −0.29.
In the case of `CCCc1nn(C)c2c(=O)[nH]c(-c3cc(S(=O)(=O)N4CCN(CCO)CC4)ccc3OCC)nc12` [Lodenafil], the Difference [1, 8] is reported as −0.27, the Cholesterol-free [1, 3] is reported as 0.8421 and the Complete ([1]; NCI-H292 cells, complete media) is reported as 0.5699. The “Cholesterol-free media + simvastatin (0.04 μM)” value [2, 5] was 0.819, the “Complete Media” value [2, 6] was 0.8488 and the Difference [2, 7] was 0.03.
Work on `N#Cc1cc(NC(=O)C(=O)O)c(Cl)c(NC(=O)C(=O)O)c1.NC(CO)(CO)CO.NC(CO)(CO)CO` [Lodoxamide (tromethamine)] yielded a Difference [1, 17] of −0.13, a Cholesterol-free [1, 18] of 0.8848 and a Complete [1, 16] of 0.7586. The “Cholesterol-free media + simvastatin (0.04 μM)” value [2, 15] was 0.9835, the “Complete Media” value [2, 16] was 1.282 and the Difference [2, 7] was 0.30.
`N#Cc1cc(NC(=O)C(=O)O)c(Cl)c(NC(=O)C(=O)O)c1` [Lodoxamide] was tested, and the Difference [1, 8] was −0.26, the Cholesterol-free [1, 3] was 1.144 and the Complete ([1]; NCI-H292 cells, complete media) was 0.8858. The “Cholesterol-free media + simvastatin (0.04 μM)” value [2, 11] was 1.021, the “Complete Media” value [2, 12] was 0.7589 and the Difference [2, 13] was −0.26.
In the case of `CC(Oc1c(Cl)cccc1Cl)C1=NCCN1` (stereo not drawn) [Lofexidine (hydrochloride)], the Difference ([1]; Complete minus Cholesterol-free, greater than 0 enhanced anti-cancer activity, about 0 neutral, below 0 antagonists) is reported as −0.50, the Cholesterol-free ([1]; NCI-H292 cells in cholesterol-free media without statin) is reported as 1.453 and the Complete ([1]; NCI-H292 cells in complete media) is reported as 0.95. The “Cholesterol-free media + simvastatin (0.04 μM)” value [2, 5] was 1.271, the “Complete Media” value [2, 6] was 1.376 and the Difference [2, 7] was 0.10.
`CC(Oc1c(Cl)cccc1Cl)C1=NCCN1` (stereo not drawn) [Lofexidine] gave a Difference [1, 17] of −0.14, a Cholesterol-free [1, 18] of 0.8805 and a Complete [1, 16] of 0.7367. The “Cholesterol-free media + simvastatin (0.04 μM)” value [2, 19] was 1.108, the “Complete Media” value [2, 20] was 0.8401 and the Difference [2, 13] was −0.27.
